Data on twelve compounds can be found in PMC9921564, “Novel Indole-Containing Hybrids Derived from Millepachine: Synthesis, Biological Evaluation and Antitumor Mechanism Study” (Molecules, 2023).

A word on the IC50: it is the concentration that gives 50% inhibition.

In data set [1] the test system is Caski (human epithelial cervical cancer cell line). Nature of the data set: CCK-8 antiproliferative assay, Caski. It is filed as cell-based. The conditions noted are these: Ca-Ski, 48 h, read-out: IC50, Mean ± SE, Caski. A general note: Formazan colour is commonly taken as a measure of viable cells.
The subject of data set [2] is MCF-7 (human breast carcinoma cell line). The experiment in a line: CCK-8 antiproliferative assay, MCF-7. It is filed as cell-based. The settings on record: MCF7, 48 h, read-out: IC50, Mean ± SE, MCF-7.
Data set [3] concerns C42B (human prostate cancer line). Nature of the data set: CCK-8 antiproliferative assay, C42B. The class given is cell-based. The settings on record: 48 h, read-out: IC50, Mean ± SE, C42B.
For data set [4], the system named is HepG2 (human liver carcinoma cell line). Nature of the data set: CCK-8 antiproliferative assay, HepG2. The settings on record: 48 h, read-out: IC50, Mean ± SE, HepG2. It is filed as cell-based.
The test system of data set [5] is A549 (human non-small-cell-lung cancer cell line). The experiment in a line: CCK-8 antiproliferative assay, A549. The conditions noted are these: 48 h, read-out: IC50, Mean ± SE, A549. It is filed as cell-based.
Data set [6] in a line: metabolic stability in human liver microsomes. The settings on record: for Remaining%: 37 °C, NADPH regenerating system. The class given is in vitro ADME. Here is the method: Metabolic stability is one of the most important properties in drug development. In this study, commercially available human liver microsomes were used to evaluate the metabolic stability of compound 14b. After incubation with human liver microsomes at 37 °C in vitro for an indicated time in a buffer solution containing a NADPH regenerating system, the residue of 14b was monitored by HPLC. CA-4 was used as the reference compound. […] As well known, a short half-life means a low bioavailability in vivo and is required for frequent administration with a high dose, which might result in drug accumulation and may produce related toxicity.
(Liver microsomes are a subcellular fraction often used to study metabolism.)

Data set [7] concerns five kinds of human cancer cell lines (A549, Caski, HepG2, C42B, MCF-7). The experiment in a line: CCK-8 assay, panel of five human cancer cell lines. The settings on record: 48 h, read-out: IC50 values, range over five human cancer cell lines. The class given is cell-based.

For the compound `COc1ccc(C(=O)c2ccc3[nH]ccc3c2)c2c1C=CC(C)(C)O2` [14a, (1H-indol-5-yl)(5-methoxy-2,2-dimethyl-2H-chromen-8-yl)methanone], the half-inhibitory concentration (IC50) was 86 ± 9 nM in data set [1]; 82 ± 11 nM in data set [2]; 89 ± 21 nM in data set [3]; 142 ± 14 nM in data set [4]; 72 ± 4 nM in data set [5].

With `COc1cc(C(=O)c2cccc3[nH]ccc23)cc2c1OC(C)(C)C=C2` [19a, (1H-indol-4-yl)(8-methoxy-2,2-dimethyl-2H-chromen-6-yl)methanone], the IC50 came out at 2311 ± 19 nM in data set [1]; 1775 ± 4 nM in data set [2]; 2410 ± 42 nM in data set [3]; 3098 ± 21 nM in data set [4]; 1320 ± 16 nM in data set [5].

`COc1ccc(/C=C\c2cc(OC)c(OC)c(OC)c2)cc1O` [CA-4, reference compound] gave a t1/2 in data set [6] of less than 1 h. Also, the Remaining% in data set [6] (30 min) came to 70.2%; in data set [6] (60 min), 28.3%; in data set [6] (90 min), 20.5%; in data set [6] (120 min) it was 18.7%.

In the case of `COc1ccc(C(=O)c2cccc3[nH]ccc23)c2c1C=CC(C)(C)O2` [compound 11a, (1H-indol-4-yl)(5-methoxy-2,2-dimethyl-2H-chromen-8-yl)methanone], the 50% inhibitory concentration (IC50) in data set [1] worked out at 832 ± 11 nM; in data set [2], 816 ± 45 nM; in data set [3], 911 ± 34 nM; in data set [4] it was 998 ± 34 nM; in data set [5], 631 ± 18 nM.

In the case of `COc1ccc(C(=O)c2ccc(OC)c3c2OC(C)(C)C=C3)cc1` [Compd. A, reference compound], the concentration for half-maximal inhibition (IC50) in data set [1] is 892 ± 24 nM; in data set [2], 456 ± 21 nM; in data set [3], 526 ± 7 nM; in data set [4], 758 ± 17 nM; in data set [7], 226 to 892 nM; in data set [5], 226 ± 35 nM.

Regarding `COc1cc(C(=O)c2ccc3[nH]ccc3c2)cc2c1OC(C)(C)C=C2` [21a, (1H-indol-5-yl)(8-methoxy-2,2-dimethyl-2H-chromen-6-yl)methanone], the 50% inhibitory concentration (IC50) in data set [1] was found to be 211 ± 12 nM; in data set [2], 121 ± 21 nM; in data set [3], 209 ± 20 nM; in data set [4], 441 ± 71 nM; in data set [5], 105 ± 11 nM.

As to `COc1cc(C(=O)c2ccc3c(ccn3C)c2)cc2c1OC(C)(C)C=C2` [21b, (8-methoxy-2,2-dimethyl-2H-chromen-6-yl)(1-methyl-1H-indol-5-yl)methanone], the IC50 in data set [1] turned out to be 106 ± 12 nM; in data set [2] it was 99 ± 31 nM; in data set [3], 107 ± 6 nM; in data set [4], 97 ± 31 nM; in data set [5] it was 82 ± 10 nM.

For the compound `COc1ccc(C(=O)c2cccc3c2ccn3C)c2c1C=CC(C)(C)O2` [11b, (5-methoxy-2,2-dimethyl-2H-chromen-8-yl)(1-methyl-1H-indol-4-yl)methanone], the 50% inhibitory concentration (IC50) in data set [1] amounted to 516 ± 12 nM; in data set [2], 651 ± 24 nM; in data set [3], 455 ± 15 nM; in data set [4] it was 454 ± 21 nM; in data set [5], 208 ± 9 nM.

For `COc1cc(C(=O)c2cccc3c2ccn3C)cc2c1OC(C)(C)C=C2` [19b, (8-methoxy-2,2-dimethyl-2H-chromen-6-yl)(1-methyl-1H-indol-4-yl)methanone], the IC50 in data set [1] came out at 1100 ± 32 nM; in data set [2], 1020 ± 15 nM; in data set [3] it was 1080 ± 34 nM; in data set [4], 898 ± 9 nM; in data set [5], 642 ± 81 nM.

With `COc1cc(C(=O)/C=C/c2cn(C)c3ccccc23)cc2c1OC(C)(C)C=C2` [5b, (E)-1-(8-methoxy-2,2-dimethyl-2H-chromen-6-yl)-3-(1-methyl-1H-indol-3-yl)prop-2-en-1-one], the half-inhibitory concentration (IC50) was determined as 729 ± 33 nM in data set [1]; 350 ± 11 nM in data set [2]; 577 ± 21 nM in data set [3]; 461 ± 17 nM in data set [4]; 362 ± 17 nM in data set [5].

`COc1cc(C(=O)/C=C/c2c[nH]c3ccccc23)cc2c1OC(C)(C)C=C2` [compound 5a, (E)-3-(1H-indol-3-yl)-1-(8-methoxy-2,2-dimethyl-2H-chromen-6-yl)prop-2-en-1-one]: the IC50 in data set [1] was 1930 ± 35 nM; in data set [2], 1553 ± 14 nM; in data set [3], 1380 ± 21 nM; in data set [4] it was 963 ± 32 nM; in data set [5] it was 812 ± 22 nM.

For the compound `COc1ccc(/C=C/C(=O)c2ccc(OC)c3c2OC(C)(C)C=C3)cc1` [Millepachine], the IC50 was 6710 ± 233 nM in data set [1]; 4530 ± 338 nM in data set [2]; 3180 ± 384 nM in data set [3]; 3880 ± 244 nM in data set [4]; 2570 to 6710 nM in data set [7]; 2570 ± 131 nM in data set [5].
